According to patent publication US5827846A, “Carbazole derivatives as agents against multi-drug resistance” (Novartis Corp., priority 1994, dated 1998):

How the values were obtained:
[1] = system: KB-8511 (drug-resistant, P-glycoprotein [Pgp] overexpressing) cells; test: Inhibition of cell growth of drug-resistant KB-8511 cells (methylene blue staining, 4 days); type: cell-based, Human; conditions: 5760 min
Procedure: The KB-8511 cells are kept as stock in the presence of 10 ng/ml of the antineoplastically active substance Colcemid (demecolcine). […] The plates are then incubated under the conditions mentioned above for 4 days. […] After washing, the dye is eluted with 3% (w/v) aqueous hydrochloric acid. The optical density (OD) per well, which is directly proportional to the number of cells, is then measured with a photometer at 665 nm. The IC50 values are calculated by means of a computer system, using the formula

human KB-8511 tumours = test: In vivo antitumour activity against multidrug-resistant KB-8511 tumours in nude mice; parameters: species or system female Balb/c nude mice; conditions: for T/C [%] (median tumour volumes treated versus control): KB-8511 tumour
Procedure: (§1) The determination of the in vivo antitumour activity of test substance B (=N-benzoyl-6-benzyl-staurosporin) against the drug-sensitive parental KB-31 and a multidrug-resistant variant of the KB-31, i.e. the multidrug-resistant variant KB-8511, tumours is carried out in female Balb/c nude mice (Bomholdgaard, Copenhagen, Denmark) bearing serially passaged (minimum of three consecutive transplantations) either the human parental drug-sensitive KB-31 tumours or the human KB-8511 tumours. The KB-8511 tumours overexpress Pgb, the product of the mdr-1 gene (S. Akiyma et al., "Isolation and genetic characterization of human KB cell lines resistant to multiple drug", Somatic Cell and Mol. Gen. 11, 117-126 [1985]). Tumour fragments of approximately 25 mg are transplanted into the left flank of each animal (n=6 per group). […] Tumour growth is monitored twice weekly by measuring perpendicular diameters. Tumour volumes are determined as described by T. Meyer et al., Int. J. Cancer 43, 851-856 (1989), and expressed as relative tumour size (i.e. the increase in tumour volume compared with the tumour volume at the start of the treatment).

[2] = system: human parental drug-sensitive KB-31 tumours; test: In vivo antitumour activity against drug-sensitive KB-31 tumours in nude mice; parameters: species or system female Balb/c nude mice; conditions: KB-31 tumour
Procedure: as §1

Compound: CC[C@]1(O)C[C@@H]2CN(CCc3c([nH]c4ccccc34)[C@@](C(=O)OC)(c3cc4c(cc3OC)N(C)[C@H]3[C@@](O)(C(=O)OC)[C@H](OC(C)=O)[C@]5(CC)C=CCN6CC[C@]43[C@@H]65)C2)C1 [A, vinblastine]
- % growth of KB 8511 cells ([1]; A 2.34 ng/ml alone): 101%
- % growth of KB 8511 cells ([1]; A 4.69 ng/ml alone): 101%
- % growth of KB 8511 cells ([1]; A 9.38 ng/ml alone): 98%
- % growth of KB 8511 cells ([1]; A 18.8 ng/ml alone): 98%
- % growth of KB 8511 cells ([1]; A 37.5 ng/ml alone): 98%
- % growth of KB 8511 cells ([1]; A 75.0 ng/ml alone): 90%
- % growth of KB 8511 cells ([1]; A 150 ng/ml alone): 66%
- % growth of KB 8511 cells ([1]; A 300 ng/ml alone): 14%

Compound: CO[C@@H]1[C@H](N(C)C(=O)c2ccccc2)C[C@H]2O[C@]1(C)n1c3ccccc3c3c4c(c5c6ccccc6n2c5c31)C(=O)N(Cc1ccccc1)C4 [B, N-benzoyl-6-benzyl-staurosporin]
- Sensitisation of KB-8511 tumours to adriamycin (human KB-8511 tumours; 25 mg/kg p.o. 4 hours prior to adriamycin 9.0 mg/kg i.v.): sensitises the multi-drug resistant KB-8511 tumours to adriamycin
- T/C [%] (median tumour volumes treated versus control) (human KB-8511 tumours; 1 × 25 mg/kg p.o.): 93%
- T/C [%] (median tumour volumes treated versus control) ([2]; 1 × 25 mg/kg p.o.): 91%
- % growth of KB 8511 cells ([1]; B 0.1 μmol alone): 92%
- % growth of KB 8511 cells ([1]; B 1 μmol alone (Example 10)): 95%
- % growth of KB 8511 cells ([1]; B 1 μmol alone (Example 11)): 82%

Compound: COc1cccc2c1C(=O)c1c(O)c3c(c(O)c1C2=O)C[C@@](O)(C(=O)CO)C[C@@H]3O[C@H]1C[C@H](N)[C@H](O)[C@H](C)O1 [C, adriamycin]
- T/C [%] (median tumour volumes treated versus control) (human KB-8511 tumours; 1 × 9 mg/kg i.v.): 89%
- T/C [%] (median tumour volumes treated versus control) ([2]; 1 × 9 mg/kg i.v.): 13%
- Maximal tumour regression ([2]; adriamycin 1×9 mg/kg i.v. alone, on day 5): 24%
